In patent US10561665B2, “Treatment of autism” (priority 2014, dated 2020):
Read-outs that look alike come from different tables or passages of the source.

Tests used:
Mecp2 mice [1] = assay: respiratory function (plethysmograph) in Mecp2 mutant mice and controls; format: in vivo; details: IP or gavage, 0.1 to 20 mg/kg
Procedure: Respiratory function was monitored in a plethysmograph (EMKA Technologies) for 30 minutes prior to and 1 hour after drug administration (one set of mice received IP injections and one set of mice received oral gavage). [N=2 mice/group at each dose and each administration route; for the vehicle controls, N=6 WT/group; N=6 Mecp2/group]. Data were analyzed using repeated measures analysis of variance.

[2] = tested on: mice with lesions of the nucleus basalis magnocellularis; details: cited from earlier work; for increase of time remaining in the lighted compartment versus saline: nBM lesioned mice, compound given during training, optimal performance; for best dose for memory enhancement: passive avoidance, 24 hour retention
female Mecp2 mice = assay: novel object recognition (NOR) task in female Mecp2 mice; format: in vivo; details: Mecp2 females
Procedure: Cognitive function was assessed using the novel object recognition (NOR) task using methods previously described (Schaevitz et al. 2013). […] Novel object memory was assessed during three sessions. This task relies on the innate tendency of a mouse to explore unfamiliar objects vs. familiar objects. Testing was performed in an open-field arena. Twenty-four hours prior to training, mice were habituated to the arena for 10 min. Ninety minutes before training, the mice were administered drug or vehicle (0.1, 0.5, 1.0, 2.5 and 5.0 mg/kg IP). During training, mice were given 10 min to explore two identical Lego objects (A+A). Short- and long-term object memory were assessed in two subsequent sessions ([…]) during which mice were given 10 min to explore the familiar (A) or a novel (B or C) object. The duration of exploration (defined as the mouse's snout or forelimbs physically touching or approaching within 1 cm of an object) of familiar and novel objects was measured. The amount of time spent exploring the novel object over the total time exploring both novel and familiar objects in each session was used to measure object memory. [N=6/dose of 0.1, 0.5 and 1.0; N=1/dose of 2.5 and 5.0 mg/kg; for vehicle N=6 WT and N=6 Mecp2 mice.]
For the novel objection recognition task data, we created a matrix of all wildtype and Mecp2 females who were administered the vehicle and a second matrix comparing Mecp2 females with and without the drug (all doses combined).

CaCo-2 cells = assay: in vitro permeability of a layer of CaCo-2 cells; format: in vitro ADME, human; details: predicted from CaCo-2 permeability
mice = details: cited from earlier work; for adverse effects at very high doses: 50-100 mg/kg
α7 nicotinic receptors = target: T1, α7 nicotinic receptors (Rattus norvegicus, UniProt Q05941); details: cited from earlier work
T1 construct: Primary cultured rat neurons can be depolarized by the application of 1.5 mM choline; endogenous in cells; host or cells: primary cultured rat neurons
T1 sequence (Q05941 23-502): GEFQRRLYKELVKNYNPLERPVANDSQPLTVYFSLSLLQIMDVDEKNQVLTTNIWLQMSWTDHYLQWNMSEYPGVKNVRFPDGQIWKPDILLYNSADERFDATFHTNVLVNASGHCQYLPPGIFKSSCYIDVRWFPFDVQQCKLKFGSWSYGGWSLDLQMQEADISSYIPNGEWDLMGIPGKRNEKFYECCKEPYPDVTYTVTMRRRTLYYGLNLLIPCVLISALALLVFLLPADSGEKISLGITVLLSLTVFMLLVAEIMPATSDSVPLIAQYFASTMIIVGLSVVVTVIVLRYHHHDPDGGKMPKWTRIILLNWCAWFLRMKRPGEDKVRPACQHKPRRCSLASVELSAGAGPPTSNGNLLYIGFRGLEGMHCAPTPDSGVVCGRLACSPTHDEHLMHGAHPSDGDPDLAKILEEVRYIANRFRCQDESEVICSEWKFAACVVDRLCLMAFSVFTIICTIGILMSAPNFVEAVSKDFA

cholinesterase [3] = details: cholinesterase inhibitor (Han et al 1991); cited from earlier work
[4] = stability in mouse plasma
[5] = liver microsome stability; format: in vitro ADME, Mouse; details: for half-life at 5 μM: mouse, liver microsomes
Mecp2 mice [6] = assay: locomotor activity (photobeam) in Mecp2 mutant mice and controls; format: in vivo; details: 0.1 to 20 mg/kg
Procedure: Locomotor activity was monitored using methods described previously (Shaevitz et al. 2013 Genes Brain Behav, 12(7): 732-40. doi: 10.1111/gbb.12070). Mecp2 mutant males (between 1 and 3 months old) and females (between 3 and 6 months old) and age-matched controls were monitored for one-hour prior to and 12 hours after drug (or vehicle: 20% DMSO in saline) administration (one set of mice received IP injections and one set of mice received oral gavage) in doses that ranged from 0.1-20 mg/kg). Activity was measured across the 12-h dark cycle using a photobeam activity system (San Diego instruments, San Diego, Calif., USA). Mice were placed individually into a cage (47×25×21 cm) inside a rectangular arena equipped with a 3×8 array of photobeams. The average number of ambulatory (two adjacent) and fine (repeated single) beam breaks per hour over the 12 h was compared. [N=2 mice/group at each dose and each administration route; for the vehicle controls, N=6 WT/group; N=6 Mecp2/group]. Data were analyzed using repeated measures analysis of variance.

cholinesterase [7] = assay: cholinesterase inhibition (IC50); format: biochemical
[8] = tested on: patient with 15q13.3 deletion syndrome; details: one patient; cited from earlier work
ASD patients = details: case reports, open-label and poorly documented studies; cited from earlier work
[9] = tested on: mild cognitive impairment population; details: patients with mild cognitive impairment; cited from earlier work
[10] = human patients; cited from earlier work
[11] = all doses combined (0.1-5.0 mg/kg IP)
[12] = 5.0 μM, Mouse, read-out: NADPH-dependent T1/2 (half-life)
[13] = 5.0 μM, Mouse, read-out: NADPH-free T1/2 (half-life)

## CCCCNC(=O)O[C@H]1C=C[C@@]23CCN(C)Cc4ccc(OC)c(c42)O[C@H]3C1 [Galantamine n-butylcarbamate, n-butylcarbamate derivative of galantamine]
Mecp2 mice [1]
  effect on respiratory activity: did not affect respiratory activity
[2]
  increase of time remaining in the lighted compartment versus saline: about 100 seconds
  best dose for memory enhancement: 0.5 mg/kg
Female Mecp2 mice; Chi square p=0.0321
  NOR task learning versus vehicle: learned the NOR task significantly better than vehicle-injected Mecp2 mice
Female Mecp2 mice; [11]
  share of mice with NOR scores = or below 0.5: 65%
  share of mice with NOR scores above 0.5: 35%
CaCo-2 cells
  predicted oral bioavailability: 80%
mice; listed as n-butylcarbamate
  adverse effects at very high doses: wobbly and off-balance with rapid heart rate still present at 4 hours, but were recovered at 24 hours
mice
  adverse effects at very high doses: affects cardiac and motor functions at very high doses
  lethality (dose without lethality): > 100 mg/kg
α7 nicotinic receptors; antibody to the galantamine recognition site on nicotinic receptors
  effect of FK-1 antibody on the enhancement: blocked by the antibody to the galantamine recognition site on nicotinic receptors, FK-1
Cholinesterase [3]
  IC50: 1.09 µM
[4]
  stability in mouse plasma: stable for greater than two hours
[4]; two hours
  concentration at two hours compared with galantamine: slightly lower than those of galantamine
[5]; 5.0 μM, Mouse
  NADPH-dependent CLint (microsomal intrinsic clearance): 23.5 μl min^−1 mg−^1
  NADPH-free CLint (microsomal intrinsic clearance): 0.0 μl min^−1 mg−^1
[5]; [12]
  half-life at 5 μM: 1.64 h
[5]; [13]
  half-life at 5 μM: > 1 h
[5]; in-vitro preparation of liver microsomes, read-out: half-life in liver microsomes
  half-life at 5 μM: > 1 h
Mecp2 mice [6]; Mecp2 mice of both sexes and controls, locomotor and respiratory functions
  tolerability: safe and well tolerated
Mecp2 mice [6]; IP or gavage, Mecp2 mice of either sex
  effect on locomotor activity: did not impair locomotor activity
Cholinesterase [7]
  cholinesterase inhibitory potency relative to galantamine: about 36%

## COc1ccc2c3c1O[C@H]1C[C@@H](O)C=C[C@@]31CCN(C)C2 [Galantamine]
[8]
  episodes of rage: striking decrease in episodes of rage
[2]
  increase of time remaining in the lighted compartment versus saline: about 125 seconds
  best dose for memory enhancement: 3 mg/kg
ASD patients
  clinical outcome in ASD: some beneficial results
[9]
  mortality in mild cognitive impairment: increased mortality
α7 nicotinic receptors; 1 μM compound, 1.5 mM choline, primary cultured rat neurons
  enhancement of the depolarization caused by choline: 20.6±4.2%
[10]
  plasma half-life: about 7 hours

## COc1ccc2c3c1O[C@H]1C[C@@H](O)C=C[C@@]31CCN(C)C2 [Galanthamine HBr, reference compound]
[5]; 5.0 μM, Mouse
  NADPH-dependent CLint (microsomal intrinsic clearance): 0.0 μl min^−1 mg−^1
  NADPH-free CLint (microsomal intrinsic clearance): 0.0 μl min^−1 mg−^1
[5]; [12]
  half-life at 5 μM: > 1 h
[5]; [13]
  half-life at 5 μM: > 1 h
